# PubChem BioAssay (NCI)
# Where “and” joins values, the source holds several entries; their conditions need not be identical. Equal values may be shown once.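 Following 48 hours of exposure in 96-well plates, responses at five concentrations were used to interpolate endpoints linearly. Abbreviation: GI50, concentration required for 50% inhibition of growth. TGI: total growth inhibition.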
# What was measured:
# Assay in all cases: growth of human tumour cells (NCI), 48 h
# M14 melanoma = test system: M14 melanoma
# OVCAR-4 ovarian = test system: OVCAR-4 ovarian
# SF-295 CNS = test system: SF-295 CNS
# RPMI-8226 leukemia = test system: RPMI-8226 leukemia
# SNB-19 CNS = test system: SNB-19 CNS
# SR leukemia = test system: SR leukemia
# NCI-H522 lung = test system: NCI-H522 lung
# HCT-15 colon = test system: HCT-15 colon
# DLD-1 colon = test system: DLD-1 colon
# KM20L2 colon = test system: KM20L2 colon
Structure (SMILES),GI50 (M14 melanoma),TGI (M14 melanoma),GI50 (OVCAR-4 ovarian),TGI (OVCAR-4 ovarian),GI50 (SF-295 CNS),TGI (SF-295 CNS),GI50 (RPMI-8226 leukemia),TGI (RPMI-8226 leukemia),GI50 (SNB-19 CNS),TGI (SNB-19 CNS),GI50 (SR leukemia),TGI (SR leukemia),GI50 (NCI-H522 lung),TGI (NCI-H522 lung),GI50 (HCT-15 colon),TGI (HCT-15 colon),TGI (DLD-1 colon),TGI (KM20L2 colon),GI50 (DLD-1 colon)
CN1CSC(=S)N(Cc2ccccc2)C1,6.65 µM,21.8 µM,14.2 µM,27.8 µM,32.7 µM,> 100 µM,5.54 µM,79.7 µM,77.1 µM,> 100 µM,2.11 µM,> 100 µM,1.89 µM,5.65 µM,4.74 µM,22 µM,–,–,–
CN(Cc1cnc2nc(N)nc(N)c2n1)c1ccc(C(=O)NC(CCC(=O)O)C(=O)O)cc1Br (stereo not drawn),< 0.01 µM,5.95 µM,13.7 µM,> 100 µM,< 0.01 µM,0.201 µM,< 0.01 µM,> 100 µM,< 0.01 µM,> 100 µM,< 0.01 µM,8.49 µM,< 0.01 µM,31.2 µM,< 0.01 µM,> 100 µM,–,–,–
CC1=C(C(=O)Nc2cc(F)c(F)cc2F)C(c2ccc([N+](=O)[O-])cc2)C(C(=O)Nc2cc(F)c(F)cc2F)=C(C)N1,–,> 100 µM,–,> 100 µM,–,> 100 µM,–,45.1 µM,–,> 100 µM,–,–,–,55.6 µM,–,–,> 100 µM,> 100 µM,–
CC[C@H](C)[C@H](NC(=O)[C@H]1CCCCN1C)C(=O)N(C)[C@H](C[C@@H](OC(C)=O)c1nc(C(=O)N[C@@H](Cc2ccccc2)C[C@H](C)C(=O)O)cs1)C(C)C,0.000337 µM and < 0.00165 µM,< 0.00165 µM,–,> 16.5 µM,0.000305 µM and < 0.00165 µM,0.00282 µM and < 0.00165 µM,0.000264 µM and 0.00165 µM,6.56 µM,0.000595 µM and 0.00165 µM,> 16.5 µM,0.000305 µM and 0.00165 µM,> 16.5 µM,0.000347 µM and < 0.00165 µM,0.0133 µM and < 0.00165 µM,0.00133 µM and 0.00165 µM,> 16.5 µM,–,–,–
O=C(Nc1nc2ccccc2s1)Nc1ccc([N+](=O)[O-])cc1Cl,7.15 µM,20.7 µM,1.86 µM,3.68 µM,3.31 µM,15.8 µM,2.19 µM,> 21 µM,8.2 µM,26.7 µM,3.31 µM,> 100 µM,2.74 µM,10.2 µM,3.05 µM,13 µM,–,–,–
O=P(O)(O)C1(P(=O)(O)O)CC1,–,> 100 µM,–,> 100 µM,–,> 100 µM,–,> 100 µM,–,> 100 µM,–,–,–,> 100 µM,–,> 100 µM,–,> 100 µM,–
CCOC(=O)COc1ccc2c(C)cc(=O)oc2c1,–,> 100 µM,–,> 100 µM,–,> 100 µM,–,> 100 µM,–,> 100 µM,–,> 100 µM,–,> 100 µM,–,> 100 µM,–,–,–
CC1=C(C(=O)Nc2ccc(Cl)c(C(=O)OC(C)C)c2)SCCO1,–,> 100 µM,–,> 97.6 µM,–,> 80.7 µM,–,67.7 µM,–,> 77.4 µM,–,–,–,69.9 µM,–,> 100 µM,> 79.4 µM,73.9 µM,–
COc1nnc2ccc(N3CCC(c4ccc(OCCN5CCN(C)C(=O)[C@H]5C)cc4)CC3)nn12,0.0934 µM,> 100 µM,0.106 µM,> 100 µM,0.206 µM,> 100 µM,0.0229 µM,54 µM,0.224 µM,> 100 µM,0.0198 µM,> 100 µM,0.0159 µM,0.878 µM,0.0869 µM,> 100 µM,–,–,–
NC(=S)c1c(N)n(C2OC(CO)C(O)C2O)c2ncnc(N)c12 (stereo not drawn),0.178 µM,0.648 µM,0.264 µM,> 100 µM,0.659 µM,> 27.1 µM,0.511 µM,3.05 µM,0.962 µM,> 100 µM,0.0636 µM,0.403 µM,0.188 µM,0.479 µM,0.0573 µM,0.435 µM,–,–,–
N#CC1c2ccccc2C=CN1C(=O)N(c1ccccc1)c1ccccc1 (stereo not drawn),2.19 µM,5.19 µM,2.99 µM,8.29 µM,12.6 µM,25.2 µM,2.56 µM,6.87 µM,13.8 µM,26.8 µM,2.14 µM,6.32 µM,1.78 µM,3.33 µM,2.51 µM,6.93 µM,–,–,–
COc1ccc(/C=C/C(=O)c2sc(-n3nc(-c4ccccc4)cc3-c3ccccc3)nc2C)cc1,> 100 µM,> 100 µM,–,> 100 µM,> 100 µM,> 100 µM,–,> 100 µM,> 100 µM,> 100 µM,–,–,–,> 100 µM,–,> 100 µM,> 100 µM,> 100 µM,> 100 µM
COc1cc2nc3cc([N+](=O)[O-])ccc3c(NCCNCC(C)(C)O)c2cc1OC,1.29 µM,3.05 µM,0.672 µM,2.99 µM,0.517 µM,3.13 µM,1.49 µM,5.8 µM,0.472 µM,2.83 µM,0.238 µM,3.04 µM,0.256 µM,1.04 µM,3.4 µM,12.8 µM,–,–,–
COc1cc(-c2nn(-c3cccc(NC(=O)c4ccc(Cl)c(C(F)(F)F)c4)c3)cc2-c2ccncc2)ccc1Cl,2.31 µM,> 32.5 µM,6.26 µM,> 32.5 µM,1.08 µM,8.19 µM,1.08 µM,> 21.8 µM,7.64 µM,> 32.5 µM,0.809 µM,> 10.2 µM,0.794 µM,5.52 µM,3.15 µM,> 32.5 µM,–,–,–
C=CC(=O)N1CC2(CC(n3nc(-c4ccc5c(cnn5C)c4)c(-c4c(Cl)c(C)cc5[nH]ncc45)c3C)C2)C1,2.88 µM,11.2 µM,3.52 µM,14.8 µM,2.16 µM,5.43 µM,2.13 µM,6.72 µM,3.43 µM,13.5 µM,1.61 µM,6.12 µM,2.09 µM,5.15 µM,1.54 µM,3.05 µM,–,–,–
Cc1cc(N2CCN(C)CC2)n2nc(-c3ccc(Cl)cc3)nc2n1,–,> 100 µM,–,> 100 µM,–,> 100 µM,–,> 100 µM,–,> 100 µM,–,> 100 µM,–,> 100 µM,–,> 100 µM,–,–,–
